Experimental data as given in US20240208961A1, “EIF4E INHIBITORS AND USES THEREOF” (PIC Therapeutics, Inc., priority 2022, published 2024).
Read-outs that look alike come from different tables or passages of the source.

Key:
[1] = Pharmacokinetic study of I-11 in female BALB/c mice (Example 4); assay type: in vivo, Balb/c mouse; conditions: mouse, plasma; for concentration at 0.5 hr / concentration at 1 hr / concentration at 2 hr / concentration at 4 hr / concentration at 8 hr / concentration at 24 hr / concentration at 0.083 hr / concentration at 0.25 hr: female, BALB/c, po
Procedure: Pharmacokinetic Study in Female BALB/c Mice: Balb/c mouse, 17-19 g, 8-10 weeks, female, N=27, purchased from JH Laboratory Animal Co. LTD
Fasted overnight and fed at 4 hr post dosing.
Animals dosed with sampling at 0.083, 0.25, 0.5, 1, 2, 4, 8, 24 hr post dose. 8 time points. Semi-serial bleeding for plasma only. The animals were restrained manually at the designated time points. Approx. 110 μL of blood/time point was taken from the animals via facial vein into tubes with K2EDTA. Blood sample was centrifuged at 4° C. (2000 g, 5 min) to obtain plasma within 15 m after sample collection. Put on wet ice, then plasma samples were stored at approximately −70° C. until analysis.
For oral gavage, compound was dosed as a suspension in […] carboxymethyl cellulose (CMC), 0.2% Tween 80 in water. Compound was orally dosed at 50 mg/Kg, at 100 mg/Kg.
For IV dosing, compound was dissolved into a solution of […], […] HS 15 and 90% Saline. Compound was IV dosed at 5 mg/Kg.
Plasma samples were analyzed for I-11 using LC-MS using a calibration curve of known concentrations.
FIG. 1 describes the mean plasma concentration-time profiles of I-11 after single IV dose of 5 mg/kg, PO dose of 50 mg/kg and 100 mg/kg in female Balb/c mice (N=3/time point). • Note: • 1. […] The IV dosing solutions were prepared in 5% DMSO+5% Solutol HS15+90% Saline. The PO dosing solutions were prepared in 1% CMC-Na+0.2% Tween 80 in water. • 3. BQL=Below quantifiable limit of 3.00 ng/mL for I-11 in female Balb/c mouse plasma samples. • 4. PK parameters were estimated by non-compartmental model using WinNonlin 8.2. If the adjusted rsq (linear regression coefficient of the concentration value on the terminal phase) is less than 0.9, T1/2 might not be accurately estimated. • 5. F value was determined by the following equation: • If AUClast/AUCINF>80%:
F=(AUCINF-EX×DOSEIV)/(AUCINF-IV×DOSEEX)[…] • If AUClast/AUCINF<80% or AUCINF not available:
F=([…])/(AUClast-IV×DOSEEX)[…] • 6. NA: Not available.

[2] = system: MCL-1 protein; experiment: MCL-1 protein (eIF4E regulated) levels in multiple myeloma cell line MM.1R (FIG. 11B); assay type: cell-based; conditions: MM.1R cells, 2 hours
[3] = 50 mg/kg, PO 50 mg/kg, read-out: Plasma concentration Individual
[4] = 50 mg/kg, PO 50 mg/kg, read-out: Plasma concentration Mean
[5] = 100 mg/kg, PO 100 mg/kg, read-out: Plasma concentration Individual
[6] = 100 mg/kg, PO 100 mg/kg, read-out: Plasma concentration Mean

With CC(C)Cc1sc(Nc2ncc(-c3cccs3)cc2C(=O)O)nc1C(C)(C)C [Compound I-11] the concentration at 0.5 hr [1, 3] was 3830 ng/mL, the concentration at 0.5 hr [1, 4] was 5850 ng/mL and the concentration at 1 hr [1, 3] was 8760 ng/mL. The concentration at 1 hr [1, 4] was 7120 ng/mL, the concentration at 2 hr [1, 3] was 7260 ng/mL and the concentration at 2 hr [1, 4] was 6310 ng/mL. The concentration at 4 hr [1, 3] was 1170 ng/mL, the concentration at 4 hr [1, 4] was 1730 ng/mL and the concentration at 8 hr [1, 3] was 367 ng/mL. The concentration at 8 hr [1, 4] was 314 ng/mL, the concentration at 24 hr ([1]; 50 mg/kg, PO 50 mg/kg) was 83.3 ng/mL and the concentration at 0.083 hr [1, 5] was 188 ng/mL. It also gave a concentration at 0.083 hr [1, 6] of 246 ng/mL, a concentration at 0.25 hr [1, 5] of 2690 ng/mL and a concentration at 0.25 hr [1, 6] of 2790 ng/mL. The concentration at 0.5 hr [1, 6] was 7820 ng/mL, the concentration at 1 hr [1, 5] was 8840 ng/mL and the concentration at 1 hr [1, 6] was 7530 ng/mL. For the same molecule, the concentration at 2 hr [1, 5] was 18600 ng/mL, the concentration at 2 hr [1, 6] was 15000 ng/mL and the concentration at 4 hr [1, 6] was 8190 ng/mL. The concentration at 8 hr [1, 6] was 633 ng/mL, the concentration at 24 hr ([1]; 100 mg/kg, PO 100 mg/kg) was 60.8 ng/mL and the AUC(0-inf) ([1]; IV 5 mg/kg) was 5280 ng·h/mL. It also gave an AUC(0-t) ([1]; IV 5 mg/kg) of 5220 ng·h/mL, a C0 ([1]; IV 5 mg/kg) of 13600 ng/mL and an MRT inf ([1]; IV 5 mg/kg) of 0.73 h. It also gave an MRT last ([1]; IV 5 mg/kg) of 0.594 h, a half-life ([1]; IV 5 mg/kg) of 2.28 h and a Vd ([1]; IV 5 mg/kg, read-out: Vss) of 0.69 L/kg. It also gave an AUC(0-inf) ([1]; PO 50 mg/kg) of 26900 ng·h/mL, an AUC(0-t) ([1]; PO 50 mg/kg) of 26400 ng·h/mL and a Cmax ([1]; PO 50 mg/kg) of 7120 ng/mL. For the same molecule, the MRT inf ([1]; PO 50 mg/kg) was 3.79 h, the MRT last ([1]; PO 50 mg/kg) was 3.31 h and the Tmax ([1]; PO 50 mg/kg) was 1 h. The half-life ([1]; PO 50 mg/kg) was 4.05 h, the AUC(0-inf) ([1]; PO 100 mg/kg) was 63400 ng·h/mL and the AUC(0-t) ([1]; PO 100 mg/kg) was 63100 ng·h/mL. For the same molecule, the Cmax ([1]; PO 100 mg/kg) was 15000 ng/mL, the MRT inf ([1]; PO 100 mg/kg) was 3.49 h and the MRT last ([1]; PO 100 mg/kg) was 3.37 h. The Tmax ([1]; PO 100 mg/kg) was 2 h, the half-life ([1]; PO 100 mg/kg) was 3.19 h and the “MCL-1 protein (eIF4E regulated) levels” value [2] was “reduces”.
